This note sets out measurements from ChEMBL document CHEMBL4190322, “Structure-based development of novel triazoles and related thiazolotriazoles as anticancer agents and Cdc25A/B phosphatase inhibitors. Synthesis, in vitro biological evaluation, molecular docking and in silico ADME-T studies” (Eur J Med Chem, 2017).

Active and inactive are the calls of the source. The rule behind the calls is not given here.

What all share (type): functional
One assay relates to 786-0. Put plainly: Growth inhibition of human 786-0 cells at 10 uM after 48 hrs by SRB assay relative to control. To be noted: for inhibition of growth at 10 µM: 786-0, 48 h, read-out: GI.
For a further assay, the system named is HT-29. Put plainly: Growth inhibition of human HT-29 cells at 10 uM after 48 hrs by SRB assay relative to control. Conditions: HT-29, 48 h, read-out: GI.
For the next assay, the system named is UO-31. Put plainly: Growth inhibition of human UO31 cells at 10 uM after 48 hrs by SRB assay relative to control. Conditions: UO-31, 48 h, read-out: GI.
The test system of another assay is SR. Put plainly: Growth inhibition of human SR cells at 10 uM after 48 hrs by SRB assay relative to control. To be noted: read-out: GI.
In another assay the test system is NCI-H226. The experiment in a line: Growth inhibition of human NCI-H226 cells at 10 uM after 48 hrs by SRB assay relative to control. Conditions: for inhibition of growth at 10 µM: NCI-H226, 48 h, read-out: GI.
For another assay, the system named is NCI-H522. Put plainly: Growth inhibition of human NCI-H522 cells at 10 uM after 48 hrs by SRB assay relative to control. Conditions: NCI-H522, 48 h, read-out: GI.
In a further assay the test system is CAKI-1. Put plainly: Growth inhibition of human Caki1 cells at 10 uM after 48 hrs by SRB assay relative to control. To be noted: CAKI-1, 48 h, read-out: GI.
The next assay concerns MDA-MB-468. The experiment in a line: Growth inhibition of human MDA-MB-468 cells at 10 uM after 48 hrs by SRB assay relative to control. To be noted: for inhibition of growth at 10 µM: MDA-MB-468, 48 h, read-out: GI.
The subject of a further assay is NCI-H322M. Put plainly: Growth inhibition of human NCI-H322M cells at 10 uM after 48 hrs by SRB assay relative to control. Conditions: read-out: GI.
A further assay deals with RXF 393. Put plainly: Growth inhibition of human RXF393 cells at 10 uM after 48 hrs by SRB assay relative to control. To be noted: for inhibition of growth at 10 µM: RXF 393, 48 h, read-out: GI.
For another assay, the system named is HCT-116. The experiment in a line: Growth inhibition of human HCT116 cells at 10 uM after 48 hrs by SRB assay relative to control. Conditions: for inhibition of growth at 10 µM: HCT-116, 48 h, read-out: GI.
In a further assay the test system is MCF7. Put plainly: Growth inhibition of human MCF7 cells at 10 uM after 48 hrs by SRB assay relative to control. Conditions: MCF7, 48 h, read-out: GI.
In a further assay the test system is RPMI-8226. Put plainly: Growth inhibition of human RPMI8226 cells at 10 uM after 48 hrs by SRB assay relative to control. Conditions: RPMI-8226, 48 h, read-out: GI.
In another assay the test system is SF-268. Put plainly: Growth inhibition of human SF268 cells at 10 uM after 48 hrs by SRB assay relative to control. To be noted: SF-268, 48 h, read-out: GI.
The test system of a further assay is Hs-578T. Put plainly: Growth inhibition of human Hs 578T cells at 10 uM after 48 hrs by SRB assay relative to control. To be noted: for inhibition of growth at 10 µM: read-out: GI.
The next assay deals with A549. Put plainly: Growth inhibition of human A549 cells at 10 uM after 48 hrs by SRB assay relative to control. Conditions: for inhibition of growth at 10 µM: A549, 48 h, read-out: GI.
The test system of the next assay is PC-3. Put plainly: Growth inhibition of human PC3 cells at 10 uM after 48 hrs by SRB assay relative to control. Conditions: PC-3, 48 h, read-out: GI.

Regarding `COc1ccc(Cc2nnc(SCC(=O)c3ccc(Cl)cc3)n2-c2ccc(C)cc2)cc1`, the “growth inhibition (GI)” value in the assay on 786-0, in the assay on RXF 393, in the assay on HCT-116 and in the assay on Hs-578T was “inactive” each time. Further, the inhibition of growth at 10 µM in the assay with HT-29 is 4.07%; in the assay with UO-31, 14%; in the assay with SR, 20%; in the assay with NCI-H226, 3%; in the assay on NCI-H522 it was 23%; in the assay on CAKI-1, 6.12%. The inhibition of growth at 10 µM in the assay on MDA-MB-468 is 11%; with NCI-H322M it was 4%; in the assay with MCF7, 8.76%; in the assay on RPMI-8226 it was 25%; with SF-268 it was 1.22%; in the assay with A549, 4.54%. Also, in the assay on PC-3, the inhibition of growth at 10 µM is 26%.

Consider `COc1ccc(Cc2nnc(SCC(=O)Nc3ccc(Cl)cc3)n2-c2ccccc2)cc1`, for which the “growth inhibition (GI)” value with 786-0, in the assay on NCI-H226, in the assay with MDA-MB-468, with Hs-578T and with A549 was “inactive” throughout. Further, the inhibition of growth at 10 µM with HT-29 amounted to 2.73%; with UO-31 it was 27.2%; with SR it was 31.2%; in the assay on NCI-H522 it was 22.3%; in the assay with CAKI-1 it was 13.7%; in the assay with NCI-H322M, 8.75%. The inhibition of growth at 10 µM in the assay on RXF 393 was 3.85%; in the assay on HCT-116, 2%; with MCF7, 4.1%; with RPMI-8226 it was 20.6%; in the assay with SF-268, 12.6%; with PC-3, 45.2%.

For the compound `COc1ccc(Cc2nnc(SCC(=O)c3ccc(Cl)cc3)n2Cc2ccccc2)cc1`, the inhibition of growth at 10 µM in the assay on 786-0 was found to be 3.19%; in the assay with HT-29, 3%; with UO-31, 34.7%; with SR, 22.2%; in the assay on NCI-H226, 10%; in the assay with NCI-H522, 30%. Moreover, the inhibition of growth at 10 µM was 23.7% in the assay with CAKI-1; 16% in the assay on MDA-MB-468; 26% in the assay on NCI-H322M; 16% in the assay on RXF 393; 11.6% in the assay with HCT-116; 10% with MCF7. The inhibition of growth at 10 µM in the assay on RPMI-8226 worked out at 26.4%; in the assay on SF-268, 11.8%; with Hs-578T, 20%; with A549 it was 16.5%; in the assay with PC-3, 51.8%.

As to `COc1ccc(Cc2nnc(SCC(=O)c3ccc(Cl)cc3)n2-c2ccccc2)cc1`, the inhibition of growth at 10 µM in the assay on 786-0 was 7.77%; in the assay on HT-29 it was 2.08%; with UO-31, 20.1%; in the assay with SR, 24.1%; with NCI-H226 it was 4%; with NCI-H522, 21%. Further, the inhibition of growth at 10 µM worked out at 13.5% with CAKI-1; 8.55% in the assay on MDA-MB-468; 8.4% in the assay on NCI-H322M; 2% in the assay with RXF 393; 6.26% in the assay on MCF7; 13.7% with RPMI-8226. The inhibition of growth at 10 µM worked out at 3.38% with SF-268, 3.43% in the assay on Hs-578T, 4.57% in the assay on A549 and 36.2% in the assay with PC-3. Also, the “growth inhibition (GI)” value with HCT-116 was “inactive”.

In the case of `COc1ccc(Cc2nnc(SCC(=O)Nc3ccc(Cl)cc3)n2Cc2ccccc2)cc1`, the inhibition of growth at 10 µM in the assay with 786-0 was found to be 11.4%; in the assay on HT-29, 10%; in the assay with UO-31, 31.7%; in the assay with SR, 25.7%; in the assay with NCI-H226 it was 4.45%; in the assay on NCI-H522, 29.3%. For the same compound, the inhibition of growth at 10 µM came out at 21.4% in the assay with CAKI-1; 14.5% with NCI-H322M; 11% with HCT-116; 11.1% in the assay on MCF7; 22.5% in the assay on RPMI-8226; 12% with SF-268. The inhibition of growth at 10 µM in the assay on Hs-578T came out at 2.82%; in the assay with A549, 1.05%; in the assay with PC-3, 47.3%. For the same compound, the “growth inhibition (GI)” value in the assay on MDA-MB-468 and in the assay on RXF 393 was “inactive” throughout.
